Test results: patent US20240150293A1, “SPIROCYCLOHEXANE DERIVATIVES, PHARMACEUTICAL COMPOSITIONS CONTAINING THEM AND THEIR USES AS ANTI-APOPTOTIC INHIBITORS” (LES LABORATOIRES SERVIER, priority 2021, published 2024)
pIC50, pKi: −log10 of the molar value. Like-named read-outs stand apart in the source and are kept apart here.

Legend:
NCI-H929 cell lines = experiment: In vitro cytotoxicity, CellTiter-Glo (CTG) assay (Example B, Method B); type: cell-based; conditions: NCI-H929 cells, 48 h incubation, read-out: C50
Experimental: Cellular viability was monitored with the cell viability assay (Cell Titer-Glo®) on NCI-H929 cell lines. The CellTiter-Glo® (CTG) Luminescent Cell Viability Assay (from Promega) is a homogeneous method to determine the number of viable cells in culture based on quantitation of the ATP present, which signals the presence of metabolically active cells.
Concentration response of test compounds are performed with 10 mM stock solutions (DMSO), 11-points curve, in a 384-well compound plate. The assay plate is prepared by stamping 120 nL from compound dilution plate of all different concentrations (e.g. 10 mM to have final 30 μM assay test) into a cell culture microplate, using Echo acoustic liquid handling (Labcyte, Beckman). 40 μl of cell solution is added and cells are incubated with compounds for 48 h at 37° C., 5% CO2. CTG was added to the cells (according to the manufacturer instructions) and luminescence intensity was recorded using the Pherastar plate reader (BMG).
This assay provides in vitro cellular efficacy of compounds of Formula (I) tested, measuring the C50, defined as the concentration needed to reach 50% of the cellular viability.

[1] = target: Cy5-labelled Mcl1 (amino acids 171-321) C286S protein (UniProtKB Q07820) (Homo sapiens (Human), UniProt Q07820, C286S); experiment: Inhibition of Mcl-1 by the fluorescence quenching assay (Example A, Method B); type: binding
Cy5-labelled Mcl1 (amino acids 171-321) C286S protein, sequence (Q07820 171-321 C286S): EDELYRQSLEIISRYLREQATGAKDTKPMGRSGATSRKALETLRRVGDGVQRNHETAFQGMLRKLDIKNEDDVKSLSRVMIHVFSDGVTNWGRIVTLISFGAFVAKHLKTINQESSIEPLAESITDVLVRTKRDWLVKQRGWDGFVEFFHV
Method in brief: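 Cy5-labelled Mcl1 171-321 C286S (1 nM) quenched by TQ5WS-labelled PUMA peptide (10, 20 or 400 nM); displacement raises fluorescence (Ex 620/Em 680 nm). Buffer 10 mM HEPES, 150 mM NaCl, 0.05% Tween 20, pH 7.4, 5% DMSO; 2 h at room temperature, 11-point curves, IC50 converted to Ki (cKi/eKi).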

[2] = test system: H929 multiple myeloma tumor line; experiment: In vitro cytotoxicity, MTT assay (Example B, Method A); type: cell-based; conditions: Homo sapiens, NCI-H929, 48 h, H929 cells, 48 hours exposure, read-out: C50
Experimental: The cytotoxicity studies were carried out on the H929 multiple myeloma tumor line.
The cells are distributed onto microplates and exposed to the test compounds for 48 hours. The cell viability is then quantified by a colorimetric assay, the Microculture Tetrazolium Assay (Carmichael et al, Cancer Res. 1987, 47, 939-942).
The results are expressed in C50 which means concentration corresponding to […] of effect/inhibition.

| pKi [1] | SMILES | pIC50 (NCI-H929 cell lines) | pIC50 (NCI-H929 cell lines; Homo sapiens, NCI-H929, 48 h) | pIC50 [2] |
| --- | --- | --- | --- | --- |
| 7.85 | CC1CCNc2nccc(OC[C@H](C)C[C@H]3Cc4ccccc4[C@]34CC[C@@](Nc3cccc(Cl)c3)(C(=O)O)CC4)c21 (single isomer, unassigned) [Example 641] | 5.52 |  |  |
| 9.14 | CC1CCNc2nccc(OC[C@H](C)C[C@H]3Cc4ccccc4[C@]34CC[C@@](Nc3cccc(Cl)c3)(C(=O)O)CC4)c21 (single isomer, unassigned) [Example 642] | 6.34 |  |  |
| 9.19 | C[C@@H](COc1ccnc2c1[C@H](C)CCC2)CC1Cc2c(Cl)c(Cl)ccc2[C@]12CC[C@@](Nc1cccc(Cl)c1)(C(=O)O)CC2 (single isomer, unassigned) [Example 751] |  | 6.55 |  |
| 9.49 | C[C@@H](COc1ccnc2c1[C@H](C)CCC2)CC1Cc2c(Cl)c(Cl)ccc2[C@]12CC[C@@](Nc1cccc(Cl)c1)(C(=O)O)CC2 (single isomer, unassigned) [Example 752] | 6.46 |  |  |
| 8.72 | CC(=O)c1cc(C)c2c(c1)[C@]1(CC[C@@](Nc3cccc(Cl)c3)(C(=O)O)CC1)C(C[C@@H](C)COc1ccnc3c1[C@H](C)CCC3)C2 (single isomer, unassigned) [Example 757] | 6.70 |  |  |
| 8.92 | CC(=O)c1cc(C)c2c(c1)[C@]1(CC[C@@](Nc3cccc(Cl)c3)(C(=O)O)CC1)C(C[C@@H](C)COc1ccnc3c1[C@H](C)CCC3)C2 (single isomer, unassigned) [Example 758] | 7.01 |  |  |
| 10.43 | CC(O)c1ccc2c(c1)[C@]1(CC[C@@](Nc3cccc(Cl)c3)(C(=O)O)CC1)[C@@H](C[C@@H](C)COc1ccnc3c1[C@H](C)CCC3)C2 (single isomer, unassigned) [Example 859] | 7.36 |  |  |
| 10.73 | CC(O)c1ccc2c(c1)[C@]1(CC[C@@](Nc3cccc(Cl)c3)(C(=O)O)CC1)[C@@H](C[C@@H](C)COc1ccnc3c1[C@H](C)CCC3)C2 (single isomer, unassigned) [Example 860] | 7.03 |  |  |
| 10.76 | CC1Oc2cc3c(cc2O1)[C@]1(CC[C@@](Nc2cccc(Cl)c2)(C(=O)O)CC1)[C@@H](C[C@@H](C)COc1ccnc2c1[C@H](C)CCC2)C3 (single isomer, unassigned) [Example 965] |  | 7.16 |  |
| 10.57 | CC1Oc2cc3c(cc2O1)[C@]1(CC[C@@](Nc2cccc(Cl)c2)(C(=O)O)CC1)[C@@H](C[C@@H](C)COc1ccnc2c1[C@H](C)CCC2)C3 (single isomer, unassigned) [Example 966] | 7.32 |  |  |
| 10.58 | CCC1Oc2cc3c(cc2O1)[C@]1(CC[C@@](Nc2cccc(Cl)c2)(C(=O)O)CC1)[C@@H](C[C@@H](C)COc1ccnc2c1[C@H](C)CCC2)C3 (single isomer, unassigned) [Example 967] |  | 6.86 |  |
| 10.39 | CCC1Oc2cc3c(cc2O1)[C@]1(CC[C@@](Nc2cccc(Cl)c2)(C(=O)O)CC1)[C@@H](C[C@@H](C)COc1ccnc2c1[C@H](C)CCC2)C3 (single isomer, unassigned) [Example 968] | 7.14 |  |  |
| 10.58 | CC1COc2cc3c(cc2OC1)[C@]1(CC[C@@](Nc2cccc(Cl)c2)(C(=O)O)CC1)[C@@H](C[C@@H](C)COc1ccnc2c1[C@H](C)CCC2)C3 (single isomer, unassigned) [Example 982] | 6.80 |  |  |
| 9.72 | C[C@@H](COc1ccnc2c1[C@H](C)CCC2)CC1=Cc2ccc(CO)cc2[C@]12CC[C@@](Nc1cccc(Cl)c1)(C(=O)O)CC2 [Example 868, (1r,4R)-4-(3-chloroanilino)-6′-(hydroxymethyl)-2′-[(2R)-2-methyl-3-{[(5R)-5-methyl-5,6,7,8-tetrahydroquinolin-4-yl]oxy}propyl]spiro[cyclohexane-1,1′-indene]-4-carboxylic acid] |  |  | 6.64 |
| 9.42 | C[C@@H](COc1ccnc2c1[C@H](C)CCC2)C[C@@H]1Cc2ccc(CO)cc2[C@]12CC[C@@](Nc1cccc(Cl)c1)(C(=O)O)CC2 [Example 869, (1r,2′R,4R)-4-(3-chloroanilino)-6′-(hydroxymethyl)-2′-[(2R)-2-methyl-3-{[(5R)-5-methyl-5,6,7,8-tetrahydroquinolin-4-yl]oxy}propyl]-2′,3′-dihydrospiro[cyclohexane-1,1′-indene]-4-carboxylic acid] |  |  | 6.71 |
| 9.13 | C[C@@H](COc1ccnc2c1[C@H](C)CCC2)C[C@@H]1Cc2ccc(COC3CCCO3)cc2[C@]12CC[C@@](Nc1cccc(Cl)c1)(C(=O)O)CC2 (stereo partly drawn) [Example 871, (1r,2′R,4R)-4-(3-chloroanilino)-2′-[(2R)-2-methyl-3-{[(5R)-5-methyl-5,6,7,8-tetrahydroquinolin-4-yl]oxy}propyl]-6′-{[(oxolan-2-yl)oxy]methyl}-2′,3′-dihydrospiro[cyclohexane-1,1′-indene]-4-carboxylic acid] |  |  | 6.94 |
| 8.38 | CC(=O)c1cc2c(cc1F)C=C(C[C@@H](C)COc1ccnc3c1[C@@H](C)CCC3)[C@]21CC[C@](Nc2cccc(Cl)c2)(C(=O)O)CC1 [Example 873, (1r,4R)-6′-acetyl-4-(3-chloroanilino)-5′-fluoro-2′-[(2R)-2-methyl-3-{[(5S)-5-methyl-5,6,7,8-tetrahydroquinolin-4-yl]oxy}propyl]spiro[cyclohexane-1,1′-indene]-4-carboxylic acid] |  |  | 6.47 |
| 8.41 | COCc1ccc2c(c1)[C@]1(CC[C@@](Nc3cccc(Cl)c3)(C(=O)O)CC1)[C@H](C[C@@H](C)COc1ccnc3c1[C@H](C)CCC3)C2 [Example 920, (1r,2′R,4R)-4-(3-chloroanilino)-6′-(methoxymethyl)-2′-[(2R)-2-methyl-3-{[(5R)-5-methyl-5,6,7,8-tetrahydroquinolin-4-yl]oxy}propyl]-2′,3′-dihydrospiro[cyclohexane-1,1′-indene]-4-carboxylic acid] |  |  | 6.98 |
|  | C[C@@H](COc1ccnc2c1[C@H](C)CCC2)C[C@H]1Cc2cc3c(cc2[C@]12CC[C@@](Nc1cccc(Cl)c1)(C(N)=O)CC2)OCO3 [Example 954, (1r,4S,6′S)-4-(3-chloroanilino)-6′-[(2R)-2-methyl-3-{[(5R)-5-methyl-5,6,7,8-tetrahydroquinolin-4-yl]oxy}propyl]-6′,7′-dihydro-2′H-spiro[cyclohexane-1,5′-indeno[5,6-d][1,3]dioxole]-4-carboxamide] |  | 5.55 |  |
|  | CNC(=O)[C@]1(Nc2cccc(Cl)c2)CC[C@@]2(CC1)c1cc3c(cc1C[C@@H]2C[C@@H](C)COc1ccnc2c1[C@H](C)CCC2)OCO3 [Example 955, (1r,4S,6′S)-4-(3-chloroanilino)-N-methyl-6′-[(2R)-2-methyl-3-{[(5R)-5-methyl-5,6,7,8-tetrahydroquinolin-4-yl]oxy}propyl]-6′,7′-dihydro-2′H-spiro[cyclohexane-1,5′-indeno[5,6-d][1,3]dioxole]-4-carboxamide] |  | 4.95 |  |
|  | C[C@@H](COc1ccnc2c1[C@H](C)CCC2)C[C@H]1Cc2cc3c(cc2[C@]12CC[C@@](Nc1cccc(Cl)c1)(C(=O)N(C)C)CC2)OCO3 [Example 956, (1r,4S,6′S)-4-(3-chloroanilino)-N,N-dimethyl-6′-[(2R)-2-methyl-3-{[(5R)-5-methyl-5,6,7,8-tetrahydroquinolin-4-yl]oxy}propyl]-6′,7′-dihydro-2′H-spiro[cyclohexane-1,5′-indeno[5,6-d][1,3]dioxole]-4-carboxamide] |  | 4.84 |  |
